Assays:
L1196M mutant ALK kinase = molecular target: T1, L1196M mutant ALK kinase (Homo sapiens, UniProt Q9UM73, L1196M); assay: HTRF KinEASE-TK assay, inhibitory activity on L1196M mutant ALK kinase; assay type: biochemical; settings: L1196M mutant ALK 1 ng/μl, substrate 1 μM, ATP 5 μM, 30° C. 35 minutes, read-out: Inhibition on ALK kinases (L1196M mutant), IC50
T1 construct: purchased Sino-US Crown Bioscience, Inc. batch number ALKm_20110923
Outline: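 HTRF TK assay: mutant kinase 1 ng/μl, substrate 1 μM, ATP 5 μM, 5 mM MgCl2, 1 mM DTT, 1% DMSO, 35 min at 30 °C. 665/615 ratio read; inhibition normalised to no-compound and 10.4 μM LDK-378 controls; IC50 from curve fit.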

Karpas-299 cell line = assay: CellTiter-Glo cell proliferation inhibition on Karpas-299 cell line; assay type: cell-based; settings: Homo sapiens, 96 h, Karpas-299 cells, 5000 cells/well, 4 days drug treatment
Outline: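 CellTiter-Glo luminescence measured after 4-day compound exposure (0.5% DMSO final) of Karpas-299 cells seeded at 5000/well in RPMI-1640 with 10% FBS, 37 °C, 5% CO2. IC50 derived from percent inhibition relative to vehicle wells.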

T1 sequence (Q9UM73 19-1620 L1196M): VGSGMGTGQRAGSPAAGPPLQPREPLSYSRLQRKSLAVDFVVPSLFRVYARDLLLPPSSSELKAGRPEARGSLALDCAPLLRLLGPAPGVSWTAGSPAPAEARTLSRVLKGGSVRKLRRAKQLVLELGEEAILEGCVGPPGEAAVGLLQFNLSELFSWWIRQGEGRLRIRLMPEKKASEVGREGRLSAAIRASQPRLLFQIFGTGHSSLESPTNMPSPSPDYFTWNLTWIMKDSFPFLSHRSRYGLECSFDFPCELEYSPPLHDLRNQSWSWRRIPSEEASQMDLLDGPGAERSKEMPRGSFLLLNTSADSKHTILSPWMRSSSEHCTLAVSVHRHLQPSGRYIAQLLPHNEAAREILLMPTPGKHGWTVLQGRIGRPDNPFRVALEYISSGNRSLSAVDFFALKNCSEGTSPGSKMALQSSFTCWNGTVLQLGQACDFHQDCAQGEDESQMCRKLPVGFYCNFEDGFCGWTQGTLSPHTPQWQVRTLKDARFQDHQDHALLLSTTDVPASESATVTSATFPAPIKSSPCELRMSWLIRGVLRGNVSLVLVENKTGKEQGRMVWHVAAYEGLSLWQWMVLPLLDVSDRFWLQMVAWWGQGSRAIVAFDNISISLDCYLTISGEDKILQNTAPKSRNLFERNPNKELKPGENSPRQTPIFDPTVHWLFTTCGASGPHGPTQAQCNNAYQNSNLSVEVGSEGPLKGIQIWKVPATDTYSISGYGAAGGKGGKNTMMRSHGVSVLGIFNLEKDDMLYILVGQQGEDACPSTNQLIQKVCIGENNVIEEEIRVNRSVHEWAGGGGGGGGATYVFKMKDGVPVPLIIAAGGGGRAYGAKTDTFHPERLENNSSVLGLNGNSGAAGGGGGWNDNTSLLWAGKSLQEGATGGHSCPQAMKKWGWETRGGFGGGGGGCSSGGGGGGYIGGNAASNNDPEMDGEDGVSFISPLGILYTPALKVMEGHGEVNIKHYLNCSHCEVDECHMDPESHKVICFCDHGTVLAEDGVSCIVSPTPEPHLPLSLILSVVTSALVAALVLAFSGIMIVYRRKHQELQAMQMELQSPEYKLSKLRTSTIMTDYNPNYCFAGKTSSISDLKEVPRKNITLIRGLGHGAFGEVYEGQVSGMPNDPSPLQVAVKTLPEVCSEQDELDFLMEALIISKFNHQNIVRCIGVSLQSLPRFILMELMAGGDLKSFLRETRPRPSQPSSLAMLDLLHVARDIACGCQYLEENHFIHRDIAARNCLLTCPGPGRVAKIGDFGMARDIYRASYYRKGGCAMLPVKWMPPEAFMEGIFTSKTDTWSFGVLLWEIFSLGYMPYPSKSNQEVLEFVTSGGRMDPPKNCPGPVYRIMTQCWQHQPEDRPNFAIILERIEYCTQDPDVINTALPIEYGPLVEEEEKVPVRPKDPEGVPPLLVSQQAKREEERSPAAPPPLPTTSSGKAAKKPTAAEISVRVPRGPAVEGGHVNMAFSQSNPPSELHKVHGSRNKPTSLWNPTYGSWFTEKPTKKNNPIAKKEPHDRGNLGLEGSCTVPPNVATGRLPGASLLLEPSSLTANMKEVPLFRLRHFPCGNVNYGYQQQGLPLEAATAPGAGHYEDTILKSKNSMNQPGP

Row | IC50 (L1196M mutant ALK kinase) [nM] | IC50 (Karpas-299 cell line) [nM] | Structure (SMILES)
1 | 8 | 10 | CC(C)Oc1cc(C2CCNCC2)ccc1Nc1ncc(Cl)c(Nc2cn(C)nc2S(=O)(=O)C(C)C)n1 [Final product 1, 5-chloro-N^2-[2-isopropoxy-4-(piperidin-4-yl)phenyl]-N^4-(3-isopropylsulfonyl-1-methyl-1H-pyrazol-4-yl)pyrimidin-2,4-diamine]
2 | 10 | 13 | Cc1cc(Nc2ncc(Cl)c(Nc3cn(C)nc3S(=O)(=O)C(C)C)n2)c(OC2CC2)cc1C1CCN(C)CC1F (stereo not shown) [Final product 87]
3 | 20 | 18 | Cc1cc(Nc2ncc(Cl)c(Nc3cn(C)nc3S(=O)(=O)C(C)C)n2)c(OC2CC2)cc1C1CCC(NS(C)(=O)=O)CC1 (stereo not shown) [Final product 205, N-(4-(4-(5-chloro-4-(3-(isopropylsulfonyl)-1-methyl-1H-pyrazol-4-amine)pyrimidin-2-amine)-5-cyclopropoxy-2-methylphenyl)cyclohexyl)methanesulfonamide]
4 | 8 | 12 | COCC1CC(c2cc(OC3CC3)c(Nc3ncc(Cl)c(Nc4cn(C)nc4S(=O)(=O)CC(C)C)n3)cc2C)CCN1C (stereo not shown) [Final product 79]
5 | 8 | 25 | Cc1cc(Nc2ncc(Cl)c(Nc3cn(C)nc3S(=O)(=O)CC(C)C)n2)c(OC2CC2)cc1C1CN(C)C1 [Final product 55]
6 | 4 | 4 | COCC1CC(c2cc(OC3CC3)c(Nc3ncc(Cl)c(Nc4cn(C)nc4S(=O)(=O)C(C)C)n3)cc2C)CCN1C (stereo not shown) [Final product 77]
7 | 25 | 27 | Cc1cc(Nc2ncc(Cl)c(Nc3cn(C4CC4)nc3S(=O)(=O)C(C)C)n2)c(OC(C)C)cc1C1CCN(C)CC1 [Final product 81]
8 | 11 | 12 | Cc1cc(Nc2ncc(Cl)c(Nc3cn(C)nc3S(=O)(=O)CC(C)C)n2)c(OC2CC2)cc1C1CCN(C)CC1 [Final product 57]
9 | 5 | 7 | Cc1cc(Nc2ncc(Cl)c(Nc3cn(C)nc3S(=O)(=O)C(C)C)n2)c(OC2CC2)cc1C1CN(C)C1 [Final product 54]
10 | 15 | 17 | Cc1cc(Nc2ncc(Cl)c(Nc3cn(C)nc3S(=O)(=O)C(C)C)n2)c(OC2CC2)cc1C1CCN(C)CC1(F)F (stereo not shown) [Final product 88]
11 | 6 | 11 | COC1CN(C)CCC1c1cc(OC2CC2)c(Nc2ncc(Cl)c(Nc3cn(C)nc3S(=O)(=O)C(C)C)n2)cc1C (stereo not shown) [Final product 58]
12 | 5 | 28 | Cc1cc(Nc2ncc(Cl)c(Nc3cn(C)nc3S(=O)(=O)C(C)C)n2)c(OC(C)C)cc1C1CCNC1 (stereo not shown) [Final product 3]
13 | 11 | 21 | Cc1cc(Nc2ncc(Cl)c(Nc3cn(C4CC4)nc3S(=O)(=O)C(C)C)n2)c(OC2CC2)cc1C1CCN(C)CC1 [Final product 56]
14 | 16 | 16 | Cc1cc(Nc2ncc(Cl)c(Nc3cn(C)nc3S(=O)(=O)C(C)C)n2)c(OC(C)C)cc1C1CCNCC1 [Final product 2]
15 | 7 | 14 | COCCN1CCC(c2cc(OC3CC3)c(Nc3ncc(Cl)c(Nc4cn(C)nc4S(=O)(=O)C(C)C)n3)cc2C)CC1 [Final product 82]
16 | 4 | 5 | Cc1cc(Nc2ncc(Cl)c(Nc3cn(C)nc3S(=O)(=O)C(C)C)n2)c(OC2CC2)cc1C1CCN(C)CC1C (stereo not shown) [Final product 90]
17 | 4 | 16 | Cc1cc(Nc2ncc(Cl)c(Nc3cn(C)nc3S(=O)(=O)C(C)C)n2)c(OC2CC2)cc1C1CCN(C)C1 (stereo not shown) [Final product 53]

— patent US10023593B2, “ALK kinase inhibitor, and preparation method and uses thereof” (BEIJING PEARL BIOTECHNOLOGY LIMITED LIABILITY COMPANY, priority 2014, dated 2018)
